Results from patent US11173146B2, “Selective activators of the intermediate conductance CA2+activated K+ channel KCa3.1 and their methods of use” (The Regents of the University of California, priority 2014, dated 2021).
Entries after “also recorded” stand apart in the source; their conditions may differ. Read-outs that look alike come from different tables or passages of the source. Blank lines part the entries; values can stand above or below the molecule they belong to.

Key:
[1] = test system: porcine coronary arteries; assay: Isometric myography on porcine coronary arteries, bradykinin-induced EDH-type relaxation; details: blocker 1 μM
KCa3.1 [2] = biological target: T1, KCa3.1 (Homo sapiens, UniProt O15554+P0DP23); assay: Whole-cell patch-clamp KCa3.1 activation (QPatch, HEK-293); format: cell-based; design: host or cells: HEK-293
Description: (§1) Cells, Cell lines and Clones. […] The cloning of hKCa2.3 (19 CAG repeats) and hKCa3.1 has been previously described (Wulff et al., 2000). The hKCa2.3 clone was later stably expressed in COS-7 cells at Aurora Biosciences Corp., San Diego, Calif. Cell lines stably expressing other mammalian ion channels were gifts from several sources: hKCa1.1 in HEK-293 cells (Andrew Tinker, University College London); hKV2.1 in HEK293 cells (James Trimmer, UC Davis); KV11.1 (HERG) in HEK-293 cells (Craig January, University of Wisconsin, Madison); hNaV1.4 in HEK-293 cells (Frank Lehmann-Horn, University of Ulm, Germany), hNaV1.5 in HEK-293 cells (Christopher Lossin, University of California Davis), and hCaV1.2 in HEK-293 cells (Franz Hofmann, Munich, Germany).
(§2) Electrophysiology. Experiments were conducted either manually with an EPC-10 amplifier (HEKA, Lambrecht/Pfalz, Germany) or on a QPatch-16 automated electrophysiology platform (Sophion Biosciences, Denmark). […] Patch pipettes were pulled from soda lime glass (micro-hematocrit tubes, Kimble Chase, Rochester, N.Y.) and had resistances of 2-3 MΩ. […] Free Ca^2+ concentrations were calculated with MaxChelator assuming a temperature of 25° C., a pH of 7.2 and an ionic strength of 160 mM. […] Na^+ aspartate Ringer was used as an external solution (in mM): 160 Na^+ aspartate, 4.5 KCl, 2 CaCl2, 1 MgCl2, 5 HEPES, pH 7.4, 290-310 mOsm. […] Reduction of both peak and tail current by the drug was determined. NaV1.7 currents were recorded with 30 ms pulses from −90 mV to −10 mV every 10 sec with a CsF-based pipette solution and normal Ringer as an external solution. CaV1.2 currents were elicited by 100-ms depolarizing pulses from −80 to 20 mV every 10 sec with a CsCl-based pipette solution and an external solution containing 30 mM BaCl2. Blockade of both Na^+ and Ca^2+ currents was determined as reduction of the current minimum.
For automated electrophysiology experiments cells were grown to ˜70% confluency, rinsed in sterile PBS containing 0.02% EDTA, and lifted with 2 mL of TrypLE™ Express (Gibco, Grand Island, N.Y.) for ˜2 min. When cells were rounded but not detached, they were dislodged by gentle tapping, suspended in DMEM, centrifuged and resuspended in 1 ml of external solution, placed into the Qfuge tube and resuspended in 150-200 μL extracellular solution after one additional spin on the QPatch. Whole-cell patch-clamp experiments were then carried out using disposable 16-channel planar patch chip plates (QPlates; patch hole diameter approximately 1 μm, resistance 2.00±0.02 MΩ). […] In order to avoid rejection of cells with large KCa3.1 currents the minimum seal resistance for whole-cell requirement was lowered to 0.001 GΩ. […] Following establishment of the whole-cell configuration, cells were held at −80 mV and KCa3.1, KCa2.1 or KCa2.2 currents elicited by a voltage protocol that held at −80 mV for 20 ms, stepped to −120 mV for 20 ms, ramped from −120 to 40 mV in 200 ms and then stepped back to −120 mV for 20 ms. This pulse protocol was applied every 10 s. […] NaV1.2 currents from N1E-115 cells, NaV1.4 and NaV1.5 currents from stably transfected HEK cells were recorded with 20 ms pulses from −90 mV to 0 mV every 10 sec with a KF-based internal solution and normal Ringer as an external solution. Current slopes (in ampere per sec) were measured using the SophionQPatch software and exported to Microsoft Excel and Origin 7.0 (OriginLab Corp. MA) for analysis. […] Data fitting to the Hill equation to obtain EC50 and IC50 values was performed with Origin 7.0. Data are expressed as mean±SD.

human KCa2.3 = biological target: T2, human KCa2.3 (Homo sapiens, UniProt Q9UGI6); assay: Manual whole-cell patch-clamp KCa2.3 activation (COS-7); format: cell-based
T2 construct: The cloning of hKCa2.3 (19 CAG repeats) and hKCa3.1 has been previously described (Wulff et al., 2000)
Description: as §1, §2
For all electrophysiology experiments solutions of benzothiazoles and benzooxazoles were always freshly prepared from 1 mM or 10 mM stock solutions in DMSO during the experiment. The final DMSO concentration never exceeded 1%. For automated assays glass vial inserts (Sophion Biosciences, Denmark) were filled with 350-400 μL of compound solution and placed into the glass insert base plate for use in the QPatch assay right before starting the QPatch.
The compounds synthesized by these methods as well as five commercially available compounds were tested for their KCa2.3 and KCa3.1 activating activity using either manual or automated whole-cell patch-clamp. Our group previously described the establishment of a QPatch assay for KCa3.1 modulators. […] We here made use of this assay and determined EC50 values for KCa3.1 activation using HEK-293 cells stably expressing human KCa3.1. Activities on human KCa2.3 were determined by manual electrophysioiogy since we currently only have KCa2.3 available in COS-7 cells, which are difficult to handle on the QPatch.

KCa2.1 = KCa2.1 (Homo sapiens, UniProt Q92952); details: literature, cited from earlier work
KCa3.1 [3] = biological target: T1, KCa3.1; details: literature; cited from earlier work
KCa2/3 channels = details: literature; read-out: EC50s for activation of KCa2/3 channels; cited from earlier work
[4] = test system: voltage-gated sodium (NaV) channels; details: literature; cited from earlier work
KV11.1 (hERG) = biological target: T3, KV11.1 (hERG) (Homo sapiens, UniProt Q12809); details: literature; cited from earlier work
T3 construct: host or cells: HEK-293

KCa2 channels = details: literature, cited from earlier work
[5] = Solubility for electrophysiology testing; format: physicochemical
dogs = details: intravenous 2 mg/kg, literature; cited from earlier work
[6] = rats; literature; cited from earlier work
mice = details: literature, cited from earlier work
[7] = 250 nM free Ca2+, read-out: EC50 for KCa3.1 activation
[8] = 250 nM free Ca2+, read-out: EC50 for KCa2.3 activation
[9] = Appendix A, read-out: KCa2.3 EC50

T2 sequence (Q9UGI6 with tags, fused parts or gaps DUP76-80): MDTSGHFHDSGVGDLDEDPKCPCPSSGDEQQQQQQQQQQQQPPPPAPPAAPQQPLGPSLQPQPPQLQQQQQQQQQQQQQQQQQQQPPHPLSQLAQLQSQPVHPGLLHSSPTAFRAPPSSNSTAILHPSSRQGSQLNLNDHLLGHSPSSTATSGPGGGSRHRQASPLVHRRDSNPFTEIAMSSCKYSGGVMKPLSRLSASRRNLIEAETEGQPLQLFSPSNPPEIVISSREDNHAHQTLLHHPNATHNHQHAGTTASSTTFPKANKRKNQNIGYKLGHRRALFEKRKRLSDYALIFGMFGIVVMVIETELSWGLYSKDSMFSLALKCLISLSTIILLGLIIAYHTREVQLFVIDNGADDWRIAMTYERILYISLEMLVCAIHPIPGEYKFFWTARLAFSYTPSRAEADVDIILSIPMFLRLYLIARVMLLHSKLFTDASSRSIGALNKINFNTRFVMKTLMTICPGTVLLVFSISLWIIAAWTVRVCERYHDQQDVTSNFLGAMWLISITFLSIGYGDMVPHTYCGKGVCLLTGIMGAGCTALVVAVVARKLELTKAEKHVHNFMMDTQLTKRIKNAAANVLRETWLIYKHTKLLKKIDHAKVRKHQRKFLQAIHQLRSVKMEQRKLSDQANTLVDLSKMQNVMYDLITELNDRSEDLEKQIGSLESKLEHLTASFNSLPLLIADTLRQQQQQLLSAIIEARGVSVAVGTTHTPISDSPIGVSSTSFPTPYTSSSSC
T3 sequence (Q12809 whole entry): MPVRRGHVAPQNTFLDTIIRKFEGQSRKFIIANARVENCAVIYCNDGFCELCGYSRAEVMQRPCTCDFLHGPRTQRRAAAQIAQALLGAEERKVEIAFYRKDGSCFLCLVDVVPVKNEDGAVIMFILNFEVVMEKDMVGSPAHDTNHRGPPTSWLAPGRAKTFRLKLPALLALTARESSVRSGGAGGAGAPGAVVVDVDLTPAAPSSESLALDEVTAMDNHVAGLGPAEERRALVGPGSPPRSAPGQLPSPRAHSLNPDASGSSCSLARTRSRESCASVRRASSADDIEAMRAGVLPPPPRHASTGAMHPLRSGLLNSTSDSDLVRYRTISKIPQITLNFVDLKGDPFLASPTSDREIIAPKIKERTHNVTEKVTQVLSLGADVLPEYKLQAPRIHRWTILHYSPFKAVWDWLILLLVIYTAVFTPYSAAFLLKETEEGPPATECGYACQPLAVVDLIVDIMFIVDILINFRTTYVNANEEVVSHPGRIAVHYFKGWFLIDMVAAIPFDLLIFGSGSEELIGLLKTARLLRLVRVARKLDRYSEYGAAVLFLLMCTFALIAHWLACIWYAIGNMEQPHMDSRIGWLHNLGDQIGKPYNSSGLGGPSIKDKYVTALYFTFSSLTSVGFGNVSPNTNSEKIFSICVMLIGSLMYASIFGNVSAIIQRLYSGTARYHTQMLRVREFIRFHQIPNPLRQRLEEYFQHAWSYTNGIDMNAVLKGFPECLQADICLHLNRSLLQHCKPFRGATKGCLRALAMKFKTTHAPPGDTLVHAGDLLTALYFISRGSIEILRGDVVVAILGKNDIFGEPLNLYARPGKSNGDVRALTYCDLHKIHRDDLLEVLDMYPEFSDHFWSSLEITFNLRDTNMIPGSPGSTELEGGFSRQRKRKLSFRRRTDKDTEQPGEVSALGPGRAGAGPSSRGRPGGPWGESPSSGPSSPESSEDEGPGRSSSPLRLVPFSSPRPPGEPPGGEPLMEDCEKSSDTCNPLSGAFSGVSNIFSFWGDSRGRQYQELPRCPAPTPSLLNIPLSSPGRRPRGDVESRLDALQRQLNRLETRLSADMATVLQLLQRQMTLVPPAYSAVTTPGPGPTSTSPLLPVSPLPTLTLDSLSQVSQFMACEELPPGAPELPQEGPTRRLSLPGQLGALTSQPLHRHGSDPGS

Compound: Clc1ccccc1C(c1ccccc1)(c1ccccc1)n1cccn1 [TRAM-34, 1-[(2-chlorophenyl)diphenylmethyl]-1H-pyrazole, reference compound]
- effect on the potentiation of BK-induced relaxation by SKA-111/SKA-121 [1]: prevented the increase of relaxation; also recorded: prevented this potentiation

- melting point: 257 °C
- EC50 (KCa3.1 [2]; [7]): 1 µM
- EC50 (human KCa2.3; [8]): 1 µM
Compound: Nc1nc2c(cc3c4c(cccc42)CC3)s1 [SKA-73, 4,5-Dihydroaceoaphtho[5,4-d]thiazol-8-amine]

- melting point: 253 °C
- EC50 (KCa3.1 [2]; [7]): 0.11 µM
- EC50 (human KCa2.3; [8]): 0.335 µM
Compound: Nc1nc2c(cc(Cl)c3ccccc32)s1 [SKA-72, 5-Chloronaphtho[1,2-d]thiazol-2-amine]

Compound: Cc1cc(NC2CCCCC2)nc(-n2nc(C)cc2C)n1 [CyPPA, cyclohexyl-[2-(3,5-dimethyl-pyrazole-1-yl-)6-methyl-pyrimidin-4-yl]-amine]
- activity on KCa2.1 (KCa2.1): completely inactive
- activity on KCa3.1 (KCa3.1 [3]): completely inactive

Compound: Nc1nc2ccc(OC(F)(F)F)cc2s1 [Riluzole]
- EC50 (KCa2/3 channels): 10 to 20 µM
- concentrations that inhibit/affect NaV channels [4]: 1 to 50 µM

- EC50 (KCa3.1 [2]; [7]): 2.7 µM
- EC50 (human KCa2.3; [9]): 24 µM
Compound: Nc1nc2c(ccc3ccccc32)o1 [SKA-102, Naphtho[1,2-d]oxazol-2-amine]

Compound: O=C1Nc2c(ccc(Cl)c2Cl)C1=NO [NS309, 6,7-dichloro-1H-indole-2,3-dione 3 oxime]
- concentration that inhibits KV11.1 (hERG) (KV11.1 (hERG)): 1000 nM
- EC50 (KCa3.1 [3]): ~0.02 µM
- EC50 (KCa2 channels): ~0.6 µM

- solubility [5]: too insoluble to be tested
Compound: Nc1nc2c(cc(Br)c3ccccc32)s1 [SKA-87, 5-Bromooaphtho[1,2-d]thiazol-2-amine]

Compound: Cc1cc(C)n(-c2nc(Nc3ccc(Cl)cc3)c3ncn(C)c3n2)n1 [NS13001]
- activity on KCa2.1 (KCa2.1): completely inactive
- activity on KCa3.1 (KCa3.1 [3]): completely inactive

Compound: CCn1c(=O)[nH]c2ccccc21 [EBIO, 1-ethylbenzimidazolin-2-one]
- EC50 (KCa2 channels; all three KCa2 channels): ~300 µM

- EC50 (KCa3.1 [2]; Appendix A, read-out: KCa3.1 EC50 (converted)): 42 µM
- effect of structural change on KCa2.3 and KCa3.1 activation compared with SKA-31 (KCa3.1 [2]; SAR, FIG. 2): completely abolished activity
- EC50 (human KCa2.3; [9]): > 50 µM
Compound: CC1=Nc2c(ccc3ccccc23)C1(C)C [SKA-92, 2,3,3-trimethyl-3H-benzo[g]indole]

Compound: c1cc2cc(c1)C[n+]1ccc(c3ccccc31)NCc1ccc(cc1)CNc1cc[n+](c3ccccc13)C2 [UCL1684, 6,10-diaza-3(1,3)8,(1,4)-dibenzena-1,5(1,4)-diquinolinacyclodecaphane, reference compound]
- effect on KCa2.3 currents activated by 20 μM SKA-121 (human KCa2.3; FIG. 4F): had a similar effect

Compound: Nc1nc2c(ccc3ccccc32)s1 [SKA-31, naphtho[1,2-d]thiazol-2-ylamine]
- reduction in blood pressure (dogs): −30 mmHg
- half-live [6]: 12 h
- heart rate (mice; 100 mg/kg): significant bradycardia
- duration of blood pressure lowering (mice; 10-30 mg/kg): 60 to 90 min
- lowering of blood pressure (mice; 10-30 mg/kg): ~30 mmHg

Compound: CON=CNc1nc2nccc(C(C)Oc3ccc(Cl)cc3C)n2n1 (single isomer, unassigned; (-)) [(-)-CM-TMPF, N-{7-[1-(4-chloro-2-methylphenoxy)ethyl]-[1,2,4]triazolo[1,5-a]pyrimidin-2-yl}-N′-methoxy-formamidine]
- KCa2.1 currents increased to % of their maximal activity (KCa2.1; Ca2+ concentrations between 10 and 100 nM): roughly 40%
